For 11 molecules, TGI results are on record in PubChem BioAssay (NCI).

In general, TGI refers to the concentration giving total growth inhibition.

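Grown in 96-well plates, cells were treated for 48 hours with each compound at five concentrations. Insufficient inhibition: endpoint recorded as highest concentration tested. At the TGI there is no net growth.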 Bounds are passed on as bounds.

What all share (experiment): DTP human tumour cell line panel, 48 h
In assay [1] the test system is SW-620 colon.
The test system of assay [2] is HL-60(TB) leukemia.
The subject of assay [3] is SF-268 CNS.
Assay [4] has as its system BT-549 breast.
For assay [5], the system named is HCT-15 colon.
For assay [6], the system named is EKVX NSCLC.
The test system of assay [7] is 786-0 renal.
Assay [8] concerns HT29 colon.
Assay [9] deals with SF-295 CNS.
Assay [10] has as its system OVCAR-3 ovarian.
The subject of assay [11] is SN12C renal.
The subject of assay [12] is CAKI-1 renal.

As for `CCCCCCCCCCCCCCCCNc1ccn(C2CC(O)C(COC(c3ccccc3)(c3ccccc3)c3ccc(OC)cc3)O2)c(=O)n1` (stereo not drawn), the TGI in assay [1], in [2], in assay [3], in [4], in assay [5] and in assay [6] was > 100 µM in each case. Further, the TGI in assay [7], in assay [8], in assay [9], in assay [10], in assay [11] and in assay [12] was > 100 µM throughout.

Consider `C#CC(O)/C=C/CCCCCCC#CC/C=C\CC#CCCCCCCCCC(O)C#C` (stereo not drawn), for which the TGI in assay [1] came to 14.2 µM; in assay [2], 3.71 µM; in [3] it was 25.8 µM; in assay [4], 20.4 µM; in assay [5], 10.4 µM; in assay [6], 10.3 µM. Also, the TGI is 5.01 µM in [7]; 12.3 µM in [8]; 30.3 µM in [9]; 24.5 µM in [10]; 4.79 µM in assay [11]; 9.08 µM in assay [12].

Turning to `CC1(C)OC2OC(C(COS(=O)(=O)C(F)(F)F)N=[N+]=[N-])C(OC(=O)c3ccccc3)C2O1` (stereo not drawn), the TGI in assay [1], in assay [2], in assay [3], in assay [4], in assay [5] and in [6] was > 100 µM throughout. In addition, the TGI in assay [7], in assay [8], in assay [9], in assay [10], in assay [11] and in assay [12] was > 100 µM each time.

On to `C=C1C(=O)O[C@H]2C[C@@H]1[C@@H](O)[C@H](O)[C@@H](C)CCCC(C)=CCC[C@@]2(C)O`, for which the TGI in assay [2] was > 100 µM; in [3] it was 73 µM; in assay [4], 25.9 µM; in assay [5], > 100 µM; in assay [6] it was > 100 µM; in assay [7], 52 µM. Further, the TGI in [9] was > 100 µM; in [10] it was 28.5 µM; in assay [11], 72.3 µM; in assay [12] it was 22.3 µM.

For `C[C@]12CC(c3ccccc3O1)C(C(=O)Nc1nc(C34CC5CC(CC(C5)C3)C4)cs1)C(=O)N2` (stereo partly drawn), the total growth inhibition concentration (TGI) in assay [1], in [2], in assay [3], in assay [4], in [5] and in [6] was > 100 µM each time. For the same molecule, the TGI in assay [7], in assay [8], in [10], in [11] and in assay [12] was > 100 µM throughout.

With `COC(=O)C1(SC)C2CCC3C2CCC31` (stereo not drawn), the TGI in [1], in assay [2], in assay [3], in assay [4], in [5] and in [6] was > 100 µM throughout. Also, the TGI in [7], in [9], in assay [10], in [11] and in assay [12] was > 100 µM each time.

On to `Brc1cccc(C2ON=C(c3ccccc3)N2C23CC4CC(CC(C4)C2)C3)c1` (stereo not drawn), for which the TGI in assay [1], in assay [3], in [4], in [5], in assay [6] and in assay [7] was > 10 µM in each case. In addition, the TGI in [8], in [9], in assay [10], in assay [11] and in assay [12] was > 10 µM in each case.

Consider `COc1ccc(NCC(=O)Nn2c(-c3ccccc3)nc3ccccc3c2=O)cc1`, for which the TGI in [1] was 82.9 µM; in [2], > 100 µM; in assay [3], > 100 µM; in [4], 65.4 µM; in assay [5] it was > 100 µM; in assay [6] it was > 100 µM. Moreover, the TGI in assay [7] was 73.6 µM; in assay [8], > 100 µM; in assay [9], > 100 µM; in assay [10], > 100 µM; in assay [11], > 100 µM.

Turning to `CCn1c(CCl)nc2c1C(=O)c1ccccc1C2=O`, the TGI in assay [1] was 2.75 µM; in assay [2], 6.85 µM; in assay [3] it was 6.65 µM; in assay [4] it was 4.09 µM; in assay [5], 3.19 µM; in assay [6], 6.44 µM. The TGI in assay [7] is > 100 µM; in assay [8], 3.47 µM; in [9], 3.54 µM; in assay [10], 3.05 µM; in [11] it was 2.97 µM.

For `COc1cc(-c2c3c(cc4c2OCO4)[C@@H](Nc2ccc(-c4ccc(-c5ccc(N[C@@H]6c7cc8c(cc7C(c7cc(OC)c(O)c(OC)c7)[C@H]7C(=O)OC[C@H]67)OCO8)cc5)cc4)cc2)[C@H]2COC(=O)[C@@H]2C3)cc(OC)c1O` (stereo partly drawn), the TGI came to 10.8 µM in assay [1]; 10.9 µM in assay [3]; 6.76 µM in [4]; 4.79 µM in assay [5]; 25.2 µM in assay [6]; 6.22 µM in assay [7]. The TGI in assay [8] came to 5.62 µM; in assay [9], 3.82 µM; in assay [10], 4.85 µM; in assay [11], 24.4 µM; in assay [12], 8.8 µM.

In the case of `COC(=O)C1OC(O[C@H]2CC[C@]3(C)[C@H]4CC=C5[C@@H]6CC(C)(C)CC[C@]6(C(=O)OC6OCC(O)C(O)C6OC6OC(C)C(OC7OCC(O)C(O)C7O)C(OC7OCC(O)(CO)C7O)C6O)[C@H](O)C[C@@]5(C)[C@]4(C)CC[C@H]3C2(C)C)C(O)C(O)C1O` (stereo partly drawn), the TGI in assay [1] amounted to 19.2 µM; in [3] it was 24 µM; in assay [4], 6.55 µM; in assay [5] it was 22.2 µM; in [6] it was 8.21 µM; in assay [7] it was 20 µM. For the same molecule, the total growth inhibition concentration (TGI) in assay [8] came out at 7.16 µM; in assay [9] it was 15.9 µM; in assay [10] it was 23.2 µM; in assay [11], 3.6 µM; in [12] it was 17.5 µM.
